Measurements from article PMC4948780, “PARP Inhibitors in Clinical Use Induce Genomic Instability in Normal Human Cells” (PLoS ONE, 2016).

How the values were obtained:
EBV-BL [1] = assay: Survival, trypan blue exclusion test of cell viability; type: cell-based, human
Excerpt: (§1) Human mammary epithelial cell lines used included non-tumorigenic diploid MCF-10A, HMEC-hTERT and tumorigenic MDA-MB-468 (basal) and MCF-7 (luminal). […] Blood samples were obtained from normal donor participants. The participants provided written informed consent to IRB protocol #95–054 approved by the Institutional Review Board at MSKCC. The original signed consent is then sent to the research participant’s medical record and a copy of the consent is given to the participant. The EBV-transformed B-lymphocyte cell line (EBV-BL) was generated by transformation of peripheral blood mononuclear cells (PBMC) with the B95.8 strain of EBV, as previously described. Primary T cells were generated from PBMC from two normal donors by non-specific activation with phytohemagglutinin and cultured in RPMI1640 and human serum AB for 4–14 days before use. E14 mES cell line was provided by M. Hooper, Brca1^-/- 236.44 mES cell line was provided by B. H. Koller, Brca2^lex1/lex2 mES cell line was provided by P. Hasty and Lexicon Genetics. E14 wild-type, Brca1^-/- 236.44, and Brca2^lex1/lex2 mES cell lines were cultured in standard ES media. Brca1^-/- 236.44 cells express a BRCA1 peptide deleted for sequences encoded by exon 11 [52], while Brca2^lex1/lex2 cells express a BRCA2 peptide deleted for the terminal exon 27 [53]. […] Veliparib and BSI-201 were purchased from Chemie Tek. The compounds were dissolved in DMSO and PBS. For clonogenic survival assays, MCF-10A (1000 cells), HMEC-hTERT (1000 cells), MDA-MB-468 (1500 cells) and mouse ES cell (2000 cells) were seeded, vehicle control or inhibitors were added at the indicated concentration 24 hours after seeding and changed every three days for continuous treatment. At 7–14 days, colonies were fixed with methanol and stained with Giemsa. For EBV-BL (6 × 10^6) and primary T cells (3.6 × 10^6) were continuously exposed to the indicated concentration of drug for 10 days at 0.6 × 10^6 cells/ml. Viable cells were scored by trypan blue exclusion.

human cells = assay: Olaparib cytotoxicity on continuous exposure, summary over cell types; type: cell-based; settings: typical value over cell types
Excerpt: (§2) Human mammary epithelial cell lines used included non-tumorigenic diploid MCF-10A, HMEC-hTERT and tumorigenic MDA-MB-468 (basal) and MCF-7 (luminal). […] Blood samples were obtained from normal donor participants. The participants provided written informed consent to IRB protocol #95–054 approved by the Institutional Review Board at MSKCC. The original signed consent is then sent to the research participant’s medical record and a copy of the consent is given to the participant. The EBV-transformed B-lymphocyte cell line (EBV-BL) was generated by transformation of peripheral blood mononuclear cells (PBMC) with the B95.8 strain of EBV, as previously described. Primary T cells were generated from PBMC from two normal donors by non-specific activation with phytohemagglutinin and cultured in RPMI1640 and human serum AB for 4–14 days before use. E14 mES cell line was provided by M. Hooper, Brca1^-/- 236.44 mES cell line was provided by B. H. Koller, Brca2^lex1/lex2 mES cell line was provided by P. Hasty and Lexicon Genetics. E14 wild-type, Brca1^-/- 236.44, and Brca2^lex1/lex2 mES cell lines were cultured in standard ES media. Brca1^-/- 236.44 cells express a BRCA1 peptide deleted for sequences encoded by exon 11 [52], while Brca2^lex1/lex2 cells express a BRCA2 peptide deleted for the terminal exon 27 [53]. […] Viable cells were scored by trypan blue exclusion.

EBV-BL [2] = assay: Sister chromatid exchange (SCE) assay, BrdU differential staining; type: cell-based, human
Excerpt: (§3) Human mammary epithelial cell lines used included non-tumorigenic diploid MCF-10A, HMEC-hTERT and tumorigenic MDA-MB-468 (basal) and MCF-7 (luminal). […] Blood samples were obtained from normal donor participants. The participants provided written informed consent to IRB protocol #95–054 approved by the Institutional Review Board at MSKCC. The original signed consent is then sent to the research participant’s medical record and a copy of the consent is given to the participant. The EBV-transformed B-lymphocyte cell line (EBV-BL) was generated by transformation of peripheral blood mononuclear cells (PBMC) with the B95.8 strain of EBV, as previously described. Primary T cells were generated from PBMC from two normal donors by non-specific activation with phytohemagglutinin and cultured in RPMI1640 and human serum AB for 4–14 days before use. E14 mES cell line was provided by M. Hooper, Brca1^-/- 236.44 mES cell line was provided by B. H. Koller, Brca2^lex1/lex2 mES cell line was provided by P. Hasty and Lexicon Genetics. E14 wild-type, Brca1^-/- 236.44, and Brca2^lex1/lex2 mES cell lines were cultured in standard ES media. Brca1^-/- 236.44 cells express a BRCA1 peptide deleted for sequences encoded by exon 11 [52], while Brca2^lex1/lex2 cells express a BRCA2 peptide deleted for the terminal exon 27 [53]. Olaparib was synthesized in the MSKCC Organic chemistry core facility. Veliparib and BSI-201 were purchased from Chemie Tek. The compounds were dissolved in DMSO and PBS. For clonogenic survival assays, MCF-10A (1000 cells), HMEC-hTERT (1000 cells), MDA-MB-468 (1500 cells) and mouse ES cell (2000 cells) were seeded, vehicle control or inhibitors were added at the indicated concentration 24 hours after seeding and changed every three days for continuous treatment. At 7–14 days, colonies were fixed with methanol and stained with Giemsa. For EBV-BL (6 × 10^6) and primary T cells (3.6 × 10^6) were continuously exposed to the indicated concentration of drug for 10 days at 0.6 × 10^6 cells/ml. Viable cells were scored by trypan blue exclusion.
(§4) To prepare metaphase spreads, exponentially growing cells were treated with 0.1–0.3 μg/ml of colcemid for 1–6 hr. Cells were collected and incubated in hypotonic solution (0.56% KCl), fixed in methanol: acetic acid (3:1), spotted to slides and air-dried. To measure chromosomal aberrations, the slides were stained with 2% Giemsa/Sorensen’s buffer. To visualize SCEs, the doubling time for each cell type was determined. Cells were incubated with 10 μM BrdU for two cell cycles. After metaphase spreads were prepared, the slides were treated with 0.5 μg/ml Hoechst 33258. The slides were exposed to black light for 20–60 min, incubated at 60°C for 2 hr, and stained in 4–10% Giemsa/Sorensen’s buffer.

primary T cell 1 = assay: as above; type: cell-based, human; settings: 1 μM, 99 hr
Excerpt: as §3, §4

MCF-7 = assay: as above; type: cell-based, human; settings: 1 μM, 66.5 hr
Excerpt: as §3, §4

MCF-10A = assay: as above; type: cell-based, human
Excerpt: as §3, §4

primary T cell 2 [3] = assay: as above; type: cell-based, human; settings: 1 μM, 70 hr
Excerpt: as §3, §4

MDA-MB-468 [4] = assay: as above; type: cell-based, human; settings: 1 μM, 40 hr
Excerpt: as §3, §4

HMEC-hTERT [5] = assay: as above; type: cell-based, human; settings: 1 μM, 30.5 hr
Excerpt: as §3, §4

[6] = tested on: Brca1^-/- 236.44 mES cells; assay: Clonogenic survival assay, mES cells; type: cell-based, mouse
Excerpt: as §1

[7] = tested on: Brca2^lex1/lex2 mES cells; assay: Clonogenic survival assay, mES cells; type: cell-based, mouse
Excerpt: as §1

MDA-MB-468 [8] = assay: Clonogenic survival assay; type: cell-based; settings: Homo sapiens, read-out: IC50 of olaparib, continuous exposure
Excerpt: as §2

HMEC-hTERT [9] = assay: Clonogenic survival assay; type: cell-based; settings: Homo sapiens, read-out: IC50 of olaparib, continuous exposure
Excerpt: as §2

primary T cell 2 [10] = assay: Survival, trypan blue exclusion test of cell viability; type: cell-based; settings: Homo sapiens, read-out: IC50 of olaparib, continuous exposure
Excerpt: as §2

[11] = Mus musculus, read-out: IC50 (clonogenic survival)

For `O=C(c1cc(Cc2n[nH]c(=O)c3ccccc23)ccc1F)N1CCN(C(=O)C2CC2)CC1` [olaparib], the “survival (mean ± SD)” value (EBV-BL [1]; EBV-BL, 1 μM) was 92.6 ± 7.4%, the IC50 (EBV-BL [1]; Homo sapiens, 240 h, read-out: IC50 (cell survival), EBV-BL, continuous exposure 10 days, trypan blue exclusion) was 3600 nM and the IC50 (human cells) was over 2000 nM. For the same molecule, the “Mean no. SCE / metaphase ± SD” value (EBV-BL [2]; 0.1 μM) was 26.0 ± 6.4, the “Mean no. SCE / metaphase ± SD” value (EBV-BL [2]; 0.5 μM) was 36.2 ± 7.4 and the “Mean no. SCE / chromosome ± SD” value (EBV-BL [2]; 1 μM, 87 hr) was 1.13 ± 0.23. The “Mean no. SCE / metaphase ± SD” value (EBV-BL [2]; 1 μM, 87 hr) was 51.6 ± 10.6, the “Mean no. SCE / chromosome ± SD” value (primary T cell 1) was 0.90 ± 0.20 and the “Mean no. SCE / metaphase ± SD” value (primary T cell 1) was 41.3 ± 9.3. For the same molecule, the “Mean no. SCE / metaphase ± SD” value (MCF-7) was 152.4 ± 21.9, the “Mean no. SCE / metaphase ± SD” value (MCF-10A; 0.1 μM) was 33.0 ± 4.9 and the “Mean no. SCE / metaphase ± SD” value (MCF-10A; 0.5 μM) was 52.2 ± 9.8. For the same molecule, the “Mean no. SCE / chromosome ± SD” value (MCF-10A; 1 μM, 30 hr) was 1.57 ± 0.24, the “Mean no. SCE / metaphase ± SD” value (MCF-10A; 1 μM, 30 hr) was 73.5 ± 10.9 and the “Mean no. SCE / chromosome ± SD” value (primary T cell 2 [3]) was 0.94 ± 0.21. For the same molecule, the “Mean no. SCE / metaphase ± SD” value (primary T cell 2 [3]) was 43.0 ± 9.7, the “Mean no. SCE / chromosome ± SD” value (MDA-MB-468 [4]) was 1.97 ± 0.38 and the “Mean no. SCE / metaphase ± SD” value (MDA-MB-468 [4]) was 107.9 ± 21.0. The “Mean no. SCE / chromosome ± SD” value (HMEC-hTERT [5]) was 1.30 ± 0.22, the “Mean no. SCE / metaphase ± SD” value (HMEC-hTERT [5]) was 59.7 ± 10.0 and the IC50 [6, 11] was 2.5 nM. The “enhanced sensitivity of cells lacking wild-type BRCA1 vs wild-type cells” value ([6]; ratio of IC50, wild-type / Brca1^-/- 236.44) was 240 fold, the IC50 [7, 11] was 13 nM and the “enhanced sensitivity of cells lacking wild-type BRCA2 vs wild-type cells” value ([7]; ratio of IC50, wild-type / Brca2^lex1/lex2) was 46 fold. The IC50 (MDA-MB-468 [8]) was 600 nM, the IC50 (HMEC-hTERT [9]) was 5500 nM and the IC50 (primary T cell 2 [10]) was 2700 nM.
